# Laboratory results: patent publication US11684638B2, “Targeted delivery system, system components, and methods” (REGENTS OF THE UNIVERSITY OF MINNESOTA, priority 2016, dated 2023)
# Assays:
# MSCs [1] = assay: MSC cell viability, MTS assay; assay type: cell-based, human
# Description: Cell viability was determined by MTS assay at 3 days, 5 days, and 7 days. After incubation for the designated time period, Ac4ManNAz-containing medium was exchanged with 500 μL of fresh growth medium and 100 μL of the MTS/PMS solution was added to each well. Cells were further incubated for one hour at 37° C. and soluble formazan produced by the live cells was measured at 490 nm using a microplate reader. Cells without Ac4ManNAz treatment were used as a control.
# MSCs [2] = tested on: MSCs
# Description: Various Ac4ManNAz concentrations were evaluated as follows. MSCs were seeded onto 96-well plate at a density of 1.5×10^3 cells/well in 150 μL of MSCM supplemented with 0, 1 μM, 5 μM, 10 μM, 20 μM, 50 μM, or 100 μM final concentration of Ac4ManNAz. After three days of incubation, the cells were washed twice with DPBS and treated with sulforhodamine B dibenzocyclooctyl (DBCO-sulforhodamine B) (20 μM final concentration) for one hour. Cells were rinsed five times with DPBS and images were taken using a fluorescence microscope. For quantitative analysis, cells treated with Ac4ManNAz were stained with DBCO-carboxyrhodamine and the fluorescence intensity (λex: 485 and λem: 528 nm) was measured using plate reader (FLx800 microplate fluorescence reader, BioTek Instruments, Inc., Winooski, Vt., USA).
# Similarly, various Ac4ManNAz incubation times were evaluated by culturing MSCs in 20 μM Ac4ManNAz for different incubation times. The cells were treated as before for microscopy or quantitation of available azide groups. The treatments were staggered to perform the final analysis at the same time to maintain the cell number at the time of analysis.
# [3] = tested on: subcutaneous A549-Luc tumors injected with MSC-Az or control MSC; assay: In vivo click chemistry with intravenous DBCO-Cy5.5; set-up: species or system athymic nude mice
# Description: A549-Luc lung tumors were developed in athymic nude mice such that each animal has two tumors, one on each side of the abdomen. When the tumors reached about 100 mm^3, the animals received intratumoral injection (5×10^5 cells/100 μL) of control MSCs in one tumor and MSC-Az in the other tumor of the same animal. One hour following MSC injection, 5 μg of DBCO-Cy5.5 in 100 μL DPBS was injected intravenously per mice. DBCO-Cy5.5 binding to MSC-Az was monitored by imaging at different time intervals (0.5 hour, 1 hour, 5 hours, or 24 hours) using an IVIS Spectrum live animal imager (Xenogen Corp., Alameda, Calif.).
# [4] = tested on: orthotopic ovarian tumors; assay: Antitumor efficacy of glycoengineered MSC pre-incubated with DBCO-functionalized paclitaxel nanoparticles (FIG. 10); assay type: in vivo, mice; settings: Kaplan-Meier; intraperitoneal; 2×10^6 MSC-Az; ABRAXANE at 40 mg/kg paclitaxel on day 0, 4, 8
# Description: FIG. 10. Antitumor efficacy of glycoengineered MSC pre-incubated with DBCO-functionalized paclitaxel nanoparticles.
# Saline-treated animals were used as […] control.
# [5] = tested on: platinum-resistant C200 ovarian cancer cells; assay: Cytotoxicity in co-culture […] assay (FIG. 11); assay type: cell-based
# Description: FIG. 11. IC50 of glycoengineered MSCs in platinum-resistant C200 ovarian cancer cells in co-culture using […] assay (Corning, Inc., Tewksbury, Mass.). The cytotoxic potential of glycoengineered MSCs was determined by co-culturing with C200 cells using a […] assay at 72 hours. For cytotoxicity assessment, C200 cells (20,000/well) were seeded in lower chamber of 24 well […] plate with different concentrations of glycoengineered MSCs in upper chamber. […] However, when incubated at 1:1 ratio of C200 to glycoengineered-MSCs, 75% cytotoxicity was observed.
smiles,measurement,setting,value
"CC(=O)OC[C@H]1OC(OC(C)=O)[C@@H](NC(=O)CN=[N+]=[N-])[C@@H](OC(C)=O)[C@@H]1OC(C)=O (some centres unmarked) [Ac4ManNAz, N-azidoacetylmannosamine-tetraacylated]",cell viability of MSCs,MSCs [1]; 100 μM after five days of incubation,reduced
same,viability of MSCs,MSCs [1]; up to 50 μM for seven days,unaffected
same,azide expression on MSC surface by fluorophore labeling,MSCs [2]; 20 μM in culture media,highest expression levels
same,surface coverage of azide groups,MSCs [2]; three days of incubation,highest surface coverage of azide groups
CCN1/C(=C/C=C/C=C/C2=[N+](CCCCCC(=O)NCCC(=O)N3Cc4ccccc4C#Cc4ccccc43)c3ccc4c(S(=O)(=O)[O-])cc(S(=O)(=O)O)cc4c3C2(C)C)C(C)(C)c2c1ccc1c(S(=O)(=O)O)cc(S(=O)(=O)O)cc21 [DBCO-Cy5.5],MSC-Az associated fluorescence in tumor,[3]; 24 hours post injection,found even at 24 hours
same,fluorescent label in tumors,[3]; one hour post intravenous dosing,detected only in the tumors injected with MSC-Az
"CC(=O)O[C@H]1C(=O)[C@@]2(C)[C@H]([C@H](OC(=O)c3ccccc3)[C@]3(O)C[C@H](OC(=O)[C@H](O)[C@@H](NC(=O)c4ccccc4)c4ccccc4)C(C)=C1C3(C)C)[C@]1(OC(C)=O)CO[C@@H]1C[C@@H]2O [PTX solution, paclitaxel]",median survival,[4],50 days
same,IC50,[5],4.16 nM
